Results: publication PMC7413254 (Nature Communications, 2020)

How the values were obtained:
Assay type in all cases: cell-based
PfCRT^Dd2 [1] = molecular target: T1, PfCRT^Dd2 (Plasmodium falciparum, UniProt Q9N623, A220S/I356T/K76T/M74I/N326S/N75E/Q271E/R371I); assay: [3H]CQ uptake into Xenopus oocytes, cis-inhibition by unlabelled solute; conditions: PfCRTDd2 oocytes, background [3H]CQ accumulation subtracted, normalised to oocyte type control
From the text: (§1) The orientation of PfCRT in the parasite’s DV membrane, and also in the oocyte plasma membrane, is such that its N- and C-termini extend into the cytosol. The oocytes were suspended in a reaction buffer adjusted to pH 5.5 to mimic the pH of the DV lumen[1],[2]. In this scenario, the transport of a substrate via PfCRT from the acidic extracellular solution into the oocyte cytosol[15] is analogous to the parasite’s PfCRT-mediated efflux of a substrate from the acidic DV and into the cytosol. Unless specified otherwise, this is the direction in which substrate transport was measured in the oocyte assays.
(§2) Unless specified otherwise, the transport assays were conducted over 1.5 h at 27.5 °C and the reaction buffer was ND96 (96 mM NaCl, 2 mM KCl, 1 mM MgCl2, 1.8 mM CaCl2, 10 mM MES and 10 mM Tris-base) at pH 5.5.
(§3) Ten oocytes were washed twice with the relevant ND96 buffer. […] The assay was terminated by removing the reaction buffer and washing the oocytes with ice-cold ND96 buffer. The oocytes were lysed in 10% (w/v) sodium dodecyl sulfate (SDS) and the radioactivity accumulated within each oocyte was measured with a MicroBeta^2 microplate liquid scintillation analyser (PerkinElmer).
(§4) At least four independent experiments were performed (on different days and using oocytes from different frogs), and within each experiment measurements were made from ten oocytes per treatment.

PfCRT^Ecu1110 [2] = molecular target: T2, PfCRT^Ecu1110 (Plasmodium falciparum, UniProt Q9N623, A220S/I356L/K76T/N326D); assay: as above; conditions: for PfCRT-mediated [3H]CQ transport, cis-inhibition (% PfCRTEcu1110 control): PfCRTEcu1110 oocytes, background [3H]CQ accumulation subtracted, normalised to oocyte type control; for [3H]CQ transport (% PfCRTEcu1110 control), cis-inhibition, PfCRTEcu1110: PfCRT-mediated component (background subtracted), sheet title says normalised to PfCRTDd2 control, mean ± SEM, SEM
T2 sequence (Q9N623 whole entry A220S/I356L/K76T/N326D): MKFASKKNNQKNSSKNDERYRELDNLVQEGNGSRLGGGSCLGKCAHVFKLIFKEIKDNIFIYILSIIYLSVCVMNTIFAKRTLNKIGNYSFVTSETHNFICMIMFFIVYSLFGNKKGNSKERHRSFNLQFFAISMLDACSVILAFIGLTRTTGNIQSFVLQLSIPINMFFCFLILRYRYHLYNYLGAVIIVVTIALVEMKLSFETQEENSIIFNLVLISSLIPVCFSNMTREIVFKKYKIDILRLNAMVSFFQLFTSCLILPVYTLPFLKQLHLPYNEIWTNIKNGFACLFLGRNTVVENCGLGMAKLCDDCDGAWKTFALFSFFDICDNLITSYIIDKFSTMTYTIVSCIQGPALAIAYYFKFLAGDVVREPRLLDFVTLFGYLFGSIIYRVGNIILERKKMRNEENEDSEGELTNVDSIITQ
From the text: as §1, §2, §3, §4

PfCRT^3D7 = PfCRT^3D7 (Plasmodium falciparum, UniProt Q8IBZ9); assay: cell-based; conditions: PfCRT3D7 oocytes, normalised to oocyte type control
PfCRT^3D7, sequence (Q8IBZ9 59-398): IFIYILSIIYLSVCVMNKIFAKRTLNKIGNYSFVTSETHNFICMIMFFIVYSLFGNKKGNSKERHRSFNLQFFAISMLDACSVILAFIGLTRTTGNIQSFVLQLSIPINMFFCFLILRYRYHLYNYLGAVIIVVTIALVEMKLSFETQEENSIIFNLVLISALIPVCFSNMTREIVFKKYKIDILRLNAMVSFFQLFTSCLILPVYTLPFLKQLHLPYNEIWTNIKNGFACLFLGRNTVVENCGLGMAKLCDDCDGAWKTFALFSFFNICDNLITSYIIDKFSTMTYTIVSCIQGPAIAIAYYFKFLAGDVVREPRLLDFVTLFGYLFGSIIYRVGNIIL
Description: as §2
(§5) The intracellular concentrations were calculated using previous estimates of the volume of stage V–VI oocytes (~400 nL[60]). […] The oocytes were injected with VF-6 suspended in 25 nL ND96 buffer adjusted to pH 5.0, 5.5, 6.0 or 7.0, which corresponded to the injection of 2.5–250 fmol of H^+. The Na^+-dependence of the trans-stimulatory effect of VF-6 was assessed by injecting the oocytes with VF-6 suspended in ND96 buffer (pH 5.5) or a Na^+-free version of this buffer (the Na^+ was replaced with choline).
as §4

PfCRT^Dd2 [3] = molecular target: T1, PfCRT^Dd2; assay: cell-based; conditions: for PfCRT-mediated [3H]CQ transport, trans-stimulation (% PfCRTDd2 control): PfCRTDd2 oocytes, normalised to oocyte type control; for [3H]CQ transport (% PfCRTDd2 control), trans-stimulation, PfCRTDd2: PfCRT-mediated component (background subtracted), mean ± SEM, SEM
Description: as §2, §5, §4

PfCRT^Ecu1110 [4] = molecular target: T2, PfCRT^Ecu1110; assay: cell-based; conditions: for PfCRT-mediated [3H]CQ transport, trans-stimulation (% PfCRTEcu1110 control): PfCRTEcu1110 oocytes, normalised to oocyte type control; for [3H]CQ transport (% PfCRTDd2 control), trans-stimulation, PfCRTEcu1110: PfCRT-mediated component (background subtracted), sheet title says normalised to PfCRTDd2 control, mean ± SEM, SEM
Description: as §2, §5, §4

[5] = [test solute]i = 5 mM (intracellular)
[6] = [test solute]i = 45 mM (intracellular; 30 mM for some solutes due to solubility)
[7] = [test solute]i = 5 mM (injected)
[8] = [test solute]i = 45 mM (30 mM for some solutes due to solubility)

T1 sequence (Q9N623 whole entry A220S/I356T/K76T/M74I/N326S/N75E/Q271E/R371I): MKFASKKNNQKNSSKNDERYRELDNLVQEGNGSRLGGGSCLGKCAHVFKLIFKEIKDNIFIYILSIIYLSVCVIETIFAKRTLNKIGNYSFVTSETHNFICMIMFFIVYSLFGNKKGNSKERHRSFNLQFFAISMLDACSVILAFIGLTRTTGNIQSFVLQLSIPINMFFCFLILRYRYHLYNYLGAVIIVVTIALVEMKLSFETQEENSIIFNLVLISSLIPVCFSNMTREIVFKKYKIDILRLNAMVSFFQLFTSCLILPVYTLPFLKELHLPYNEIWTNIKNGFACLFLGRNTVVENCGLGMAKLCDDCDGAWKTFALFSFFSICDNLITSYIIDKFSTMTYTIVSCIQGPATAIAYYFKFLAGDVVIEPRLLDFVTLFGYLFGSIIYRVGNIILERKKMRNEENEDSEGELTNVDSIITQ

Substance | PfCRT-mediated [3H]CQ transport, cis-inhibition (% PfCRTDd2 control) (PfCRT^Dd2 [1]; [test solute] = 0.5 mM) | PfCRT-mediated [3H]CQ transport, cis-inhibition (% PfCRTDd2 control) (PfCRT^Dd2 [1]; [test solute] = 1 mM) | PfCRT-mediated [3H]CQ transport, cis-inhibition (% PfCRTDd2 control) (PfCRT^Dd2 [1]; [test solute] = 2 mM) | PfCRT-mediated [3H]CQ transport, cis-inhibition (% PfCRTEcu1110 control) (PfCRT^Ecu1110 [2]; [test solute] = 0.5 mM) | PfCRT-mediated [3H]CQ transport, cis-inhibition (% PfCRTEcu1110 control) (PfCRT^Ecu1110 [2]; [test solute] = 1 mM) | PfCRT-mediated [3H]CQ transport, cis-inhibition (% PfCRTEcu1110 control) (PfCRT^Ecu1110 [2]; [test solute] = 2 mM) | [3H]CQ transport (% PfCRTEcu1110 control), cis-inhibition, PfCRTEcu1110 (PfCRT^Ecu1110 [2]; [test solute] = 0.5 mM) [% PfCRTEcu1110 control] | [3H]CQ transport (% PfCRTEcu1110 control), cis-inhibition, PfCRTEcu1110 (PfCRT^Ecu1110 [2]; [test solute] = 2 mM) [% PfCRTEcu1110 control] | PfCRT-mediated [3H]CQ transport, trans-stimulation (% PfCRT3D7 control) (PfCRT^3D7; [5]) | PfCRT-mediated [3H]CQ transport, trans-stimulation (% PfCRT3D7 control) (PfCRT^3D7; [6]) | PfCRT-mediated [3H]CQ transport, trans-stimulation (% PfCRTDd2 control) (PfCRT^Dd2 [3]; [5]) | PfCRT-mediated [3H]CQ transport, trans-stimulation (% PfCRTDd2 control) (PfCRT^Dd2 [3]; [6]) | [3H]CQ transport (% PfCRTDd2 control), trans-stimulation, PfCRTDd2 (PfCRT^Dd2 [3]; [7]) [% PfCRTDd2 control] | [3H]CQ transport (% PfCRTDd2 control), trans-stimulation, PfCRTDd2 (PfCRT^Dd2 [3]; [8]) [% PfCRTDd2 control] | PfCRT-mediated [3H]CQ transport, trans-stimulation (% PfCRTEcu1110 control) (PfCRT^Ecu1110 [4]; [5]) | PfCRT-mediated [3H]CQ transport, trans-stimulation (% PfCRTEcu1110 control) (PfCRT^Ecu1110 [4]; [6]) | [3H]CQ transport (% PfCRTDd2 control), trans-stimulation, PfCRTEcu1110 (PfCRT^Ecu1110 [4]; [7]) [% PfCRTEcu1110 control] | [3H]CQ transport (% PfCRTDd2 control), trans-stimulation, PfCRTEcu1110 (PfCRT^Ecu1110 [4]; [8]) [% PfCRTEcu1110 control] | [3H]CQ transport (% PfCRTEcu1110 control), cis-inhibition, PfCRTEcu1110 (PfCRT^Ecu1110 [2]; [test solute] = 1 mM) [% PfCRTEcu1110 control]
HVDDMPN [HN-7] | 37 ± 1.7 | 20 ± 0.5 | 9.2 ± 1.1 | 36 ± 1.6 | 31 ± 3.5 | 21 ± 1.3 | 11 ± 0.6 | 7.0 ± 0.05 | 142 ± 4.5 | 187 ± 4.5 | 100 ± 3.2 | 98 ± 3.5 | 100 ± 3.2 | 98 ± 3.5 | 132 ± 4.3 | 140 ± 4.2 | 40 ± 2.5 | 42 ± 2.4 | 
GTFAT [GT-5] | 62 ± 2.0 | 50 ± 2.2 | 20 ± 1.1 | 51 ± 1.1 | 41 ± 2.5 | 30 ± 0.4 |  | 9.0 ± 0.1 | 96 ± 3.5 | 96 ± 3.4 | 96 ± 3.5 | 96 ± 4.2 | 96 ± 3.5 | 96 ± 4.2 | 98 ± 4.6 | 98 ± 4.4 | 30 ± 1.6 | 30 ± 1.7 | 13 ± 0.3
VLSPAD [VD-6] | 47 ± 1.8 | 28 ± 1.1 | 29 ± 1.0 | 58 ± 3.5 | 48 ± 3.2 | 39 ± 0.4 |  | 12 ± 0.01 | 97 ± 4.2 | 95 ± 4.1 | 101 ± 3.6 | 98 ± 3.3 | 101 ± 3.6 | 98 ± 3.3 | 98 ± 3.2 | 98 ± 3.3 | 30 ± 1.3 | 30 ± 1.4 | 
SHCLLVT [ST-7] | 38 ± 1.0 | 27 ± 1.3 | 12 ± 0.1 | 39 ± 1.1 | 31 ± 2.5 | 19 ± 1.4 | 12 ± 0.5 | 6.0 ± 0.02 | 140 ± 4.3 | 192 ± 4.6 | 97 ± 3.2 | 113 ± 2.0 | 97 ± 3.2 | 113 ± 2.0 | 130 ± 3.2 | 136 ± 4.3 | 39 ± 1.3 | 41 ± 2.2 | 10 ± 0.1
